Calls of active or inactive are those of the source. No rule for the calls is given here.
Each compound was assayed against Intestinal-type alkaline phosphatase (Homo sapiens) (UniProt P09923) (assay: activation of human intestinal phosphatase enzyme – biochemical, human enzyme for mouse series, mouse IAP activator project, SAR follow-up (AID 493145)). Settings: purified human intestinal alkaline phosphatase, enzymatic activity.
Chain of Intestinal-type alkaline phosphatase (Homo sapiens) (P09923 whole entry, looked up): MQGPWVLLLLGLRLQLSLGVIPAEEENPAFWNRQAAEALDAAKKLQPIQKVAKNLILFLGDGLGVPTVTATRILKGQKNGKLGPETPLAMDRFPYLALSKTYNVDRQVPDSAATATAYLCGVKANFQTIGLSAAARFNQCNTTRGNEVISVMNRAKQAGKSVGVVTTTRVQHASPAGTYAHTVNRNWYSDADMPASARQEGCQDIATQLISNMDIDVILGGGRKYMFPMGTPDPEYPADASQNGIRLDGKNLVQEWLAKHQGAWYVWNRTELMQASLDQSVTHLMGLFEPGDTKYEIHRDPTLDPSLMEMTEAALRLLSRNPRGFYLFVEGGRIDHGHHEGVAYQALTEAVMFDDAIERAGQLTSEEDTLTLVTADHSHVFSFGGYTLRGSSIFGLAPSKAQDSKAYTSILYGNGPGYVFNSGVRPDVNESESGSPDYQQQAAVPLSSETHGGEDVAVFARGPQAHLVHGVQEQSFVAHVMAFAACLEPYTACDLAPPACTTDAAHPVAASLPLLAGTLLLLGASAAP
COC(=O)NNC(=O)c1cc(OC)c(OC)c(OC)c1 was tested, and the EC50 was > 100 µM (inactive).
In the case of O=C(CN1C(=O)/C(=C\c2ccco2)SC1=S)Nc1cccc(C(=O)O)c1, the EC50 is reported as > 100 µM (inactive).
N#Cc1c(SCC(=O)Nc2ccc(C(F)(F)F)cc2)sc2c(O)cc(=O)[nH]c12 was tested, and the EC50 was > 100 µM (inactive).
COc1ccc(NC(=O)CCNS(=O)(=O)c2ccc3[nH]c(=O)oc3c2)cc1Cl was tested, and the EC50 was > 100 µM (inactive).
CC(C(=O)N(C)C1CCS(=O)(=O)C1)N1C(=O)/C(=C/c2ccco2)SC1=S (centres undefined) was tested, and the EC50 was > 100 µM (inactive).
For COc1cc(C(=O)NNC(=S)NC(=O)c2ccc(Cl)cc2)cc(OC)c1OC, the EC50 was 19.1 µM.
In the case of O=C(N/N=C/c1ccccc1F)c1cc(O)c(O)c(O)c1, the EC50 is reported as > 100 µM (inactive).
With O=C(CN1C(=O)/C(=C\c2ccco2)SC1=S)Nc1ccccc1C(=O)O the EC50 was > 100 µM (inactive).
In the case of CC(C(=O)NCCc1ccc(O)cc1)N1C(=O)/C(=C/c2ccco2)SC1=S (centres undefined), the EC50 is reported as > 100 µM (inactive).
In the case of COc1ccccc1NC(=O)CSc1sc2c(O)cc(=O)[nH]c2c1C#N, the EC50 is reported as > 100 µM (inactive).
With Cc1ccc(NC(=O)CCNS(=O)(=O)c2ccc3[nH]c(=O)oc3c2)cc1 the EC50 was > 100 µM (inactive).
With COc1ccc(NC(=S)NCCC(c2ccccc2)c2ccccc2)cc1 the EC50 was 52.3 µM.
For CCN(C(=O)C(C)N1C(=O)/C(=C/c2ccco2)SC1=S)C1CCS(=O)(=O)C1 (centres undefined), the EC50 was 82.9 µM.
With O=C(CCN1C(=O)/C(=C/c2ccco2)SC1=S)Nc1ccc(O)cc1C(=O)O the EC50 was > 100 µM (inactive).
N#Cc1c(SCC(=O)Nc2nc3ccccc3s2)sc2c(O)cc(=O)[nH]c12 was tested, and the EC50 was > 100 µM (inactive).
For COc1cc(C(=O)NNC(=O)C2CC2)cc(OC)c1OC, the EC50 was > 100 µM (inactive).
In the case of O=C(N/N=C/C1CC=CCC1)c1cc(O)c(O)c(O)c1 (centres undefined), the EC50 is reported as > 100 µM (inactive).
Compound FC(F)(F)c1cccc(NC(=S)NCCC(c2ccccc2)c2ccccc2)c1 has an EC50 of 66.4 µM.
For O=S(=O)(Nc1ncccn1)c1ccc(NC(=S)NCCC(c2ccccc2)c2ccccc2)cc1, the EC50 was > 100 µM (inactive).
N#Cc1c(SCC(=O)Nc2nncs2)sc2c(O)cc(=O)[nH]c12 was tested, and the EC50 was > 100 µM (inactive).
In the case of CCN(CC)C(=O)CSc1sc2c(O)cc(=O)[nH]c2c1C#N, the EC50 is reported as > 100 µM (inactive).
For O=C(CN1C(=O)/C(=C/c2ccco2)SC1=S)Nc1ccc(C(=O)O)c(O)c1, the EC50 was > 100 µM (inactive).
Compound O=C(CN1C(=O)/C(=C/c2ccco2)SC1=S)NC1C=CS(=O)(=O)C1 (centres undefined) has an EC50 of 52.6 µM.
CC(C(=O)Nc1ccccc1C(=O)O)N1C(=O)/C(=C\c2ccco2)SC1=S (centres undefined) was tested, and the EC50 was > 100 µM (inactive).
